Data set [1] can be described thus: Solubility comparison: cloud point on adding water to a DMSO solution. Format: physicochemical. The following applies: upon dissolution in DMSO.
A short description of data set [2]: UV-Vis absorption spectrum. Type of data set: physicochemical. The following applies: compared to compounds 1 and 2; FIG. 5.

As for `Cn1c2c(c3ccccc31)C(SCCC(=O)ON1C(=O)CCC1=O)Sc1ccccc1-2` (stereo not drawn) [3a, 2,5-Dioxopyrrolidin-1-yl 3-((11-methyl-6,11-dihydrothiochromeno[4,3-b]indol-6-yl)thio)propanoate], the melting point is 90 to 96 °C (dec.). Besides, in data set [1], the “water added at which a cloud point formed” value is on record as 30%. In addition, the “absorbance at 355 nm” value in data set [2] is “high absorbance”.

For the compound `CCn1c2c(c3ccccc31)C(SCCC(=O)ON1C(=O)CCC1=O)Sc1ccccc1-2` (stereo not drawn) [3b, 2,5-Dioxopyrrolidin-1-yl 3-((11-ethyl-6,11-dihydrothiochromeno[4,3-b]indol-6-yl)thio)propanoate], the melting point is 82 to 87 °C (dec.).

`CCCn1c2c(c3ccccc31)C(SCCC(=O)ON1C(=O)CCC1=O)Sc1ccccc1-2` (stereo not drawn) [3c, 2,5-Dioxopyrrolidin-1-yl 3-((11-propyl-6,11-dihydrothiochromeno[4,3-b]indol-6-yl)thio)propanoate]: the melting point was 77 to 82 °C (dec.).

As to `CCCCn1c2c(c3ccccc31)C(SCCC(=O)ON1C(=O)CCC1=O)Sc1ccccc1-2` (stereo not drawn) [3d, 2,5-Dioxopyrrolidin-1-yl 3-((11-butyl-6, 11-dihydrothiochromeno[4,3-b]indol-6-yl)thio)propanoate], the melting point is 76 to 81 °C (dec.).

For the origin of these results see patent US10647723B2, “Thiochromene type compound and use thereof” (SOGANG UNIVERSITY RESEARCH FOUNDATION, priority 2015, dated 2020).
